# Laboratory results: patent publication US7820865B2, “Photolatent systems” (Ciba Corporation, priority 2005, dated 2010)
row,SMILES,melting point [°C]
1,"COc1cc(C=O)ccc1OCC(=O)c1cc(C2CCCCC2)c(O)c(C2CCCCC2)c1 [Compound 103, 4-[2-(3,5-di-cyclohexyl-4-hydroxyphenyl)-2-oxo-ethoxy]-3-methoxy-benzaldehyde]",163 to 164
2,"CC(C)(C)c1cc(C(=O)COc2ccc(Cl)cc2Oc2ccc(Cl)cc2Cl)cc(C(C)(C)C)c1O [Compound 104, 2-[4-chloro-2-(2,4-dichloro-phenoxy)-phenoxy]-1-(3,5-di-tert-butyl-4-hydroxyphenyl)-ethanone]",111 to 114
3,"CCOCC(=O)c1cc(C(C)(C)C)c(O)c(C(C)(C)C)c1 [Compound 113, 2-ethoxy-1-(4-hydroxy-3,5-di-tert-butylphenyl)-ethanone]",73 to 75
4,"CC(C)c1cc(C(=O)CI)cc(C(C)C)c1O [Compound 201, 1-(4-hydroxy-3,5-di-isopropylphenyl)-2-iodo-ethanone]",127 to 128
5,"Cc1ccc(OCC(=O)c2cc(C(C)C)c(O)c(C(C)C)c2)cc1 [Compound 105, 1-(4-hydroxy-3,5-di-isopropylphenyl)-2-p-tolyloxy-ethanone]",124 to 125
6,"CC(C)=CCCC(C)CCOCC(=O)c1cc(C(C)C)c(O)c(C(C)C)c1 (centres unmarked) [Compound 109, 2-(3,7-dimethyl-oct-6-enyloxy]-1-(4-hydroxy-3,5-di-isopropyl-phenyl)-ethanone]",37 to 39
7,"CC(C)=CCC/C(C)=C/COCC(=O)c1cc(C(C)C)c(O)c(C(C)C)c1 [Compound 108, 2-[(E)-3,7-dimethyl-octa-2,6-dienyloxy]-1-(4-hydroxy-3,5-di-isopropyl-phenyl)-ethanone]",70 to 71
8,"COc1cc(C=O)ccc1OCC(=O)c1cc(C(C)(C)C)c(O)c(C(C)(C)C)c1 [Compound 101, 4-[2-(3,5-di-tert-butyl-4-hydroxyphenyl)-2-oxo-ethoxy]-3-methoxy-benzaldehyde]",99 to 100
9,"CCC(C)(C)c1cc(C(=O)CI)cc(C(C)(C)CC)c1O [Compound 204, 1-(3,5-bis(1,1-dimethylpropyl)-4-hydroxyphenyl)-2-iodo-ethanone]",76 to 77
10,"CCOC(C)C(=O)c1cc(C(C)(C)C)c(O)c(C(C)(C)C)c1 (centres unmarked) [Compound 115, 1-(3,5-di-tert-butyl-4-hydroxyphenyl)-2-ethoxy-propan-1-one]",64
11,"O=C(CI)c1cc(C2CCCCC2)c(O)c(C2CCCCC2)c1 [Compound 203, 1-(4-hydroxy-3,5-di-cyclohexyphenyl)-2-iodo-ethanone]",183 to 185
12,"CC(C)=CCC/C(C)=C/COCC(=O)c1cc(C(C)(C)C)c(O)c(C(C)(C)C)c1 [Compound 116, 1-(3,5-di-tert-butyl-4-hydroxyphenyl)-2-[(E)-3,7-dimethyl-octa-2,6-dienyloxy]-ethanone]",50
13,"CCC(C)(C)c1cc(C(=O)COc2ccc(C=O)cc2OC)cc(C(C)(C)CC)c1O [Compound 107, 4-{2-[3,5-bis(1,1-dimethyl-propyl)-4-hydroxy-phenyl]-2-oxo-ethoxy}-3-methoxy-benzaldehyde]",106 to 107
14,"CC(C)c1cc(C(=O)CO[C@@H]2C[C@H](C)CC[C@H]2C(C)C)cc(C(C)C)c1O [Compound 110, 1-(4-hydroxy-3,5-di-isopropylphenyl)-2-[(1R,2S,5R)-2-isopropyl-5-methyl-cyclohexyloxy]-ethanone]",83 to 84
15,CCOCC(=O)c1cc(C(C)C)c(O)c(C(C)C)c1,97 to 98
16,"CC(C)(C)c1cc(C(=O)CI)cc(C(C)(C)C)c1O [Compound 202, 1-(4-hydroxy-3,5-di-tert-butylphenyl)-2-iodo-ethanone]",88 to 89
17,"CC(I)C(=O)c1cc(C(C)(C)C)c(O)c(C(C)(C)C)c1 (centres unmarked) [Compound 205, 1-(4-hydroxy-3,5-tert-butylphenyl)-2-iodo-propane-1-one]",141
